Measurements published in ChEMBL document CHEMBL1121748, “Antimycotic imidazoles. 5. Synthesis and antimycotic properties of 1-[[2-aryl-4-(arylalkyl)-1,3-dioxolan-2-yl]methyl]-1H-imidazoles” (1981).

What was measured:
Aspergillus fumigatus = experiment: Antifungal activity against Aspergillus fumigatus; format: functional
Candida tropicalis = experiment: Antifungal activity against Candida tropicalis; format: functional
[1] = test system: Erysipelothrix rhusiopathiae; experiment: Antibacterial activity against Erysipelothrix insidiosa; format: functional
Microsporum canis = experiment: Antifungal activity against Microsporum canis; format: functional
Mucor = experiment: Antifungal activity against Mucor species; format: functional
Phialophora verrucosa = experiment: Antifungal activity against Phialophora verrucosa; format: functional
Saprolegnia = experiment: Antifungal activity against Saprolegnia species; format: functional
Sporothrix schenckii = experiment: Antifungal activity against Sporothrix schenck ii; format: functional
Streptococcus pyogenes = experiment: Antibacterial activity against Streptococcus pyogenes; format: functional
[2] = test system: Staphylococcus haemolyticus; experiment: Antibacterial against Staphylococcus hemolyticus; format: functional
Trichophyton benhamiae = experiment: Antifungal activity against Trichophyton mentagrophytes; format: functional, trychophyton mentagrophytes
[3] = Ratio of animals cured to that of animals […], Tested in vivo for antifungal activity against vaginal candidosis in rat; 0/2; format: functional
Trichophyton rubrum = experiment: Antifungal activity against Trichophyton rubrum; format: functional
Cryptococcus neoformans = experiment: Antifungal activity against Cryptococcus neoformans; format: functional
Candida albicans = experiment: Antifungal activity against Candida albicans; format: functional
[4] = Ratio of animals cured to that of animals infected, tested in vivo for antifungal activity against cutaneous candidosis in guinea pig; 0/2; format: functional; also: test concentration or dose not given here
[5] = Ratio of animals cured to that of animals infected, tested in vivo for antifungal activity against vaginal candidosis in rat; 2/2
[6] = Ratio of animals cured to that of animals infected, tested in vivo for antifungal activity against vaginal candidosis in rat; 2/4
[7] = Ratio of animals cured to that of animals infected, tested in vivo for antifungal activity against cutaneous candidosis in guinea pig; 2/2; format: functional; also: test concentration or dose not given here
[8] = Ratio of animals cured to that of animals […], Tested in vivo for antifungal activity against vaginal candidosis in rat; 1/2; format: functional
[9] = Ratio of animals cured to that of animals infected, tested in vivo for antifungal activity against cutaneous candidosis in guinea pig; 1/2; format: functional
[10] = Ratio of animals cured to that of animals infected, tested in vivo for antifungal activity against cutaneous candidosis in guinea pig; 4/13; format: functional
[11] = Ratio of animals cured to that of animals […], Tested in vivo for antifungal activity against vaginal candidosis in rat; 0/6; format: functional

Row | SMILES | Inhibition (Aspergillus fumigatus) | Inhibition (Candida tropicalis) | Inhibition [1] | Inhibition (Microsporum canis) | Inhibition (Mucor) | Inhibition (Phialophora verrucosa) | Inhibition (Saprolegnia) | Inhibition (Sporothrix schenckii) | Inhibition (Streptococcus pyogenes) | Inhibition [2] | Inhibition (Trichophyton benhamiae) | Inhibition (Trichophyton rubrum) | Inhibition (Cryptococcus neoformans) | Inhibition (Candida albicans) | Ratio [4] | also measured
1 | Clc1ccc(C2(Cn3ccnc3)OCC(c3ccccc3)O2)c(Cl)c1 (stereo unspecified) | <1 µg/mL | >100 µg/mL | 10 µg/mL | <1 µg/mL | 100 µg/mL | 100 µg/mL | 100 µg/mL | 10 µg/mL | 10 µg/mL | >100 µg/mL | <1 µg/mL | <1 µg/mL | 100 µg/mL | 100 µg/mL |  | Ratio [3]: 0
2 | Clc1ccc(C2(Cn3ccnc3)OCC(c3ccc(Br)cc3)O2)cc1 (stereo unspecified) | <1 µg/mL | 10 µg/mL | <1 µg/mL | <1 µg/mL | 10 µg/mL | 100 µg/mL | <1 µg/mL | 10 µg/mL | <1 µg/mL | 10 µg/mL | <1 µg/mL | <1 µg/mL | <1 µg/mL | 10 µg/mL | 0 | Ratio [5]: 2
3 | Clc1ccc(CCC2COC(Cn3ccnc3)(c3ccc(Cl)cc3Cl)O2)cc1 (stereo unspecified) | 10 µg/mL | 10 µg/mL | <1 µg/mL | 1 µg/mL | 10 µg/mL | 100 µg/mL | 100 µg/mL | 1 µg/mL | <1 µg/mL | 10 µg/mL | <1 µg/mL | 1 µg/mL | <1 µg/mL | 10 µg/mL | 0 | Ratio [6]: 2
4 | Clc1ccc(C2(Cn3ccnc3)OCC(Cc3ccccc3)O2)c(Cl)c1 (stereo unspecified) | <1 µg/mL | 10 µg/mL | <1 µg/mL | <1 µg/mL | 10 µg/mL | 100 µg/mL | 10 µg/mL | 10 µg/mL | 10 µg/mL | 10 µg/mL | <1 µg/mL | <1 µg/mL | <1 µg/mL | 100 µg/mL |  | Ratio [3]: 0; Ratio [7]: 2
5 | Cc1ccc(C2(Cn3ccnc3)OCC(c3ccccc3Cl)O2)cc1 (stereo unspecified) | 100 µg/mL | >100 µg/mL | 1 µg/mL | 10 µg/mL | 100 µg/mL | 100 µg/mL | 100 µg/mL | 10 µg/mL | <1 µg/mL | 100 µg/mL | <1 µg/mL | <1 µg/mL | 100 µg/mL | 100 µg/mL | 0 | Ratio [8]: 0.5
6 | Fc1ccc(C2COC(Cn3ccnc3)(c3ccc(Br)cc3)O2)cc1 (stereo unspecified) | <1 µg/mL | 100 µg/mL | 10 µg/mL | <1 µg/mL | <1 µg/mL | 100 µg/mL | 100 µg/mL | 10 µg/mL | <1 µg/mL | 100 µg/mL | <1 µg/mL | <1 µg/mL | 10 µg/mL | 100 µg/mL |  | Ratio [9]: 0.5; Ratio [6]: 2
7 | Clc1ccc(COC(Cn2ccnc2)c2ccc(Cl)cc2Cl)c(Cl)c1 (stereo unspecified) [MICONAZOLE] | 10 µg/mL | 100 µg/mL | <1 µg/mL | 1 µg/mL | >100 µg/mL | 100 µg/mL | 10 µg/mL | 1 µg/mL | <1 µg/mL | 10 µg/mL | <1 µg/mL | <1 µg/mL | 1 µg/mL | 10 µg/mL |  | Ratio [10]: 0.31; Ratio [11]: 0
